According to US8476275B2, “N-[piperazinyl hetaryl]arylsufonamide compounds with affinity for the dopamine D3 receptor” (Abbott GmbH & Co. KG, priority 2003, dated 2013):

Tests used:
[1] = biological target: T1, human dopamine D2L receptors (long isoform) (Homo sapiens, UniProt P14416); test: Dopamine D2L receptor binding, displacement of [125I] iodospiperone; conditions: ratio, HEK-293 membranes, 0.01 nM [125I] iodospiperone
T1 construct: expressed in transfected cells
Protocol: (§1) The substance to be tested was either dissolved in methanol/Chremophor® (BASF-AG) or in dimethyl sulfoxide and then diluted with water to the desired concentration.
(§2) Each assay mixture was run in triplicate.
The incubation buffer contained 50 mM tris, 120 mM NaCl, 5 mM KCl, 2 mM CaCl2, 2 mM MgCl2 and 0.1% bovine serum albumin. The buffer was adjusted to pH 7.4 with HCl.
(§3) Measurement and Analysis:
(§4) After having been incubated at 25° C. for 60 minutes, the assay mixtures were filtered through a Whatman GF/B glass fiber filter under vacuum using a cell collecting device. The filters were transferred to scintillation viols using a filter transfer system. After 4 ml of Ultima Gold® (Packard) have been added, the samples were shaken for one hour and the radioactivity was then counted in a Beta-Counter (Packard, Tricarb 2000 or 2200CA). The cpm values were converted into dpm using a standard quench series and the program belonging to the instrument.
(§5) The inhibition curves were analyzed by means of iterative nonlinear regression analysis using the Statistical Analysis System (SAS) which is similar to the “LIGAND” program described by Munson and Rodbard.

[2] = biological target: T2, human dopamine D3 receptors (Homo sapiens, UniProt P35462); test: Dopamine D3 receptor binding, displacement of [125I]-iodosulpride; conditions: membranes of HEK-293 cells stably expressing human D3 receptor; 0.1 nM [125I]-iodosulpride; 25° C., 60 minutes
T2 construct: expressed in transfected cells
Protocol: as §1, §2
The incubation buffer contained 50 mM tris, 120 mM NaCl, 5 mM KCl, 2 mM CaCl2, 2 mM MgCl2 and 0.1% bovine serum albumin, 10 μM quinolone and 0.1% ascorbic acid (prepared fresh daily). The buffer was adjusted to pH 7.4 with HCl.
as §3, §4, §5

T2 sequence (P35462 whole entry): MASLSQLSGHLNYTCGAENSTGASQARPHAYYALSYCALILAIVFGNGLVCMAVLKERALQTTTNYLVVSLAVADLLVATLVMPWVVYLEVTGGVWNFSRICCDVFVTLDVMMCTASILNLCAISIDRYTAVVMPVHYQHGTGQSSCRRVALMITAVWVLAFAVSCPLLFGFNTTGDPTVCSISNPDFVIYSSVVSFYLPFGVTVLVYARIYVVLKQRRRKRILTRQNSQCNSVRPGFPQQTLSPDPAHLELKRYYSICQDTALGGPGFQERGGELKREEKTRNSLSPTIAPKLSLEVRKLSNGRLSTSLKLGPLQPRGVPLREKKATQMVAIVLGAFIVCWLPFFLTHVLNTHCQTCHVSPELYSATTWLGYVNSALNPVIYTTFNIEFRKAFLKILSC
T1 sequence (P14416 whole entry, canonical isoform): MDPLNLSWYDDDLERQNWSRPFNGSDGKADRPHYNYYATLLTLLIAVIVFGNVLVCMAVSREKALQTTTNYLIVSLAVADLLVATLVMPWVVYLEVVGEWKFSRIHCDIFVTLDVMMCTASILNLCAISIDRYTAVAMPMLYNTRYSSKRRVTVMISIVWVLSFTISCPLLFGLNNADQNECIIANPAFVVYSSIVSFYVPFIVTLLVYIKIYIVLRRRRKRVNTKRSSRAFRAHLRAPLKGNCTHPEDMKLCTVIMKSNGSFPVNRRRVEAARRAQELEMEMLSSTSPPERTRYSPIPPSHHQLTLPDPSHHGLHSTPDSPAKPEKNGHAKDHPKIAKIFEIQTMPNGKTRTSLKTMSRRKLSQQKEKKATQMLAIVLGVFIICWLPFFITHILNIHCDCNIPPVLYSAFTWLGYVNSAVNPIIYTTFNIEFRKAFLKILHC

Substance: N-[2-(4-Allylpiperazin-1-yl)pyridin-5-yl]-4-(N-pyrrolidinyl)benzene-sulfonamide fumarate [Example 42]
- Selectivity vs. D2L [1]: 33
- Ki [2]: 5.3 nM
